Biological target: T1, human TLR7 (Homo sapiens, UniProt Q9NYK1)
T1 construct: host or cells: HEK-Blue cells
T1 sequence (Q9NYK1 27-1049): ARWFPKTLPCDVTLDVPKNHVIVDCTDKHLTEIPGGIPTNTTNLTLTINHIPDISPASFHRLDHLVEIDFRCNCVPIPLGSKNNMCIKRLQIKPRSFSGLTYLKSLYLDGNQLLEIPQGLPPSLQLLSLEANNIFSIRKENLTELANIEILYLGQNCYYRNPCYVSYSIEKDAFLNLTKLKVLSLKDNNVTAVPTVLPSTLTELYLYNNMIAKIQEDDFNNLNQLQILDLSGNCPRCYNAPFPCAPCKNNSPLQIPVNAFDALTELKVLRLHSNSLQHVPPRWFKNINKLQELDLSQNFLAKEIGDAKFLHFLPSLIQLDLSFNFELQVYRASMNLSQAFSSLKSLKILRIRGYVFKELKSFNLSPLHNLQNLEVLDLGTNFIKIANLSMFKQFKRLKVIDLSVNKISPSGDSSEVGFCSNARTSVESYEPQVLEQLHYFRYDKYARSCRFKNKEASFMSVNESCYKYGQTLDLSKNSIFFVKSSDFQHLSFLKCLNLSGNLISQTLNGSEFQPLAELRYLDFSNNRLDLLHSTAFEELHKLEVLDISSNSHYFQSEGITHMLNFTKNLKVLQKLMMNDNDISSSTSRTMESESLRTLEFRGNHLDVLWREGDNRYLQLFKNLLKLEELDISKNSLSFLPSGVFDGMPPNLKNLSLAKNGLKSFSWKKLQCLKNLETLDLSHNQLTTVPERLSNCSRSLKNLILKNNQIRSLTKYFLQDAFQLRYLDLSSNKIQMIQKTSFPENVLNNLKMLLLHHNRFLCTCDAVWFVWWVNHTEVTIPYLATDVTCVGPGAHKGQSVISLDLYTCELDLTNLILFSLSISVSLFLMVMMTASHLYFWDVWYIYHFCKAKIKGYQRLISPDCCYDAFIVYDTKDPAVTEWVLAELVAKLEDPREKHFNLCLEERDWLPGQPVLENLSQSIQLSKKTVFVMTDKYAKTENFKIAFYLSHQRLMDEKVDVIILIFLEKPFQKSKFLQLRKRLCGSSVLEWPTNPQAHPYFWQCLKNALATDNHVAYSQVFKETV
Assay: TLR7 inhibition reporter assay (HEK-Blue SEAP)
Format: cell-based
Conditions: HEK-Blue cells overexpressing human TLR7, gardiquimod 7.5 μM, 22 hour incubation
In short: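 Cells (15000/well for TLR7, 20,000 for TLR8) were treated with compounds over 0.05 nM-50 μM final. After 22 h at 37° C, 5% CO2, SEAP was measured with HEK-Blue Detection reagent; percent inhibition was taken as reduction of agonist-plus-DMSO signal relative to a known inhibitor.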

SMILES: COc1cc(-c2cc3[nH]c(=O)n([C@H]4CCCN(CC5CC5)C4)c3cc2C(C)C)cn2ncnc12 (single isomer, unassigned) [Example 128]
- IC50: 44 nM

SMILES: COc1cc(-c2cc3[nH]c(=O)n(C4CCN(CC(C)C)CC4)c3cc2C(C)C)cn2ncnc12 [Example 164, 1-(1-isobutylpiperidin-4-yl)-6-isopropyl-5-(8-methoxy-[1,2,4]triazolo[1,5-a]pyridin-6-yl)-1,3-dihydro-2H-benzo[d]imidazol-2-one]
- IC50: 12.3 nM

SMILES: CCc1cc2c(cc1-c1cc(OC)c3ncnn3c1)[nH]c(=O)n2[C@H]1CC[C@@H](NC(C)C)CC1 [Example 167, 6-ethyl-1-((1s,4s)-4-(isopropylamino)cyclohexyl)-5-(8-methoxy-[1,2,4]triazolo[1,5-a]pyridin-6-yl)-1,3-dihydro-2H-benzo[d]imidazol-2-one]
- IC50: 3.08 nM

SMILES: CCCN1CCC(n2c(=O)[nH]c3cc(-c4cc(OC)c5ncnn5c4)c(C(C)C)cc32)CC1 [Example 155, 6-isopropyl-5-(8-methoxy-[1,2,4]triazolo[1,5-a]pyridin-6-yl)-1-(1-propylpiperidin-4-yl)-1,3-dihydro-2H-benzo[d]imidazol-2-one]
- IC50: 6.33 nM

SMILES: COc1cc(-c2cc3[nH]c(=O)n(C4CCN(C)CC4)c3cc2C(C)C)cn2ncnc12 [Example 154, 6-isopropyl-5-(8-methoxy-[1,2,4]triazolo[1,5-a]pyridin-6-yl)-1-(1-methylpiperidin-4-yl)-1,3-dihydro-2H-benzo[d]imidazol-2-one]
- IC50: 2.12 nM

SMILES: COc1cc(-c2cc3[nH]c(=O)n([C@@H]4CCCN(CC5CC5)C4)c3cc2C(C)C)cn2ncnc12 [Example 142, (R)-1-(1-(cyclopropylmethyl)piperidin-3-yl)-6-isopropyl-5-(8-methoxy-[1,2,4]triazolo[1,5-a]pyridin-6-yl)-1,3-dihydro-2H-benzo[d]imidazol-2-one]
- IC50: 0.64 nM

SMILES: CCCN1CCC[C@@H](n2c(=O)[nH]c3cc(-c4cc(OC)c5ncnn5c4)c(C(F)(F)F)cc32)C1 [Example 115, (R)-5-(8-methoxy-[1,2,4]triazolo[1,5-a]pyridin-6-yl)-1-(1-propylpiperidin-3-yl)-6-(trifluoromethyl)-1,3-dihydro-2H-benzo[d]imidazol-2-one]
- IC50: 34.1 nM

SMILES: Cc1c(-c2cc3[nH]c(=O)n([C@@H]4CCCN(C(C)C)C4)c3cc2C(C)C)cn2ncnc2c1C [Example 145, (R)-5-(7,8-dimethyl-[1,2,4]triazolo[1,5-a]pyridin-6-yl)-6-isopropyl-1-(1-isopropylpiperidin-3-yl)-1,3-dihydro-2H-benzo[d]imidazol-2-one]
- IC50: 3.7 nM

SMILES: COc1cc(-c2cc3[nH]c(=O)n(C4CCN(C5CCC5)CC4)c3cc2C(C)C)cn2ncnc12 [Example 156, 1-(1-cyclobutylpiperidin-4-yl)-6-isopropyl-5-(8-methoxy-[1,2,4]triazolo[1,5-a]pyridin-6-yl)-1,3-dihydro-2H-benzo[d]imidazol-2-one]
- IC50: 17.9 nM

SMILES: COc1cc(-c2cc3[nH]c(=O)n([C@@H]4CCCN(C5COC5)C4)c3cc2C(F)(F)F)cn2ncnc12 [Example 113, (R)-5-(8-methoxy-[1,2,4]triazolo[1,5-a]pyridin-6-yl)-1-(1-(oxetan-3-yl)piperidin-3-yl)-6-(trifluoromethyl)-1,3-dihydro-2H-benzo[d]imidazol-2-one]
- IC50: 488 nM

SMILES: COc1cc(-c2cc3[nH]c(=O)n(C4CCN(C(C)C)CC4)c3cc2C)cn2ncnc12 [Example 10, 1-(1-isopropylpiperidin-4-yl)-5-(8-methoxy-[1,2,4]triazolo[1,5-a]pyridin-6-yl)-6-methyl-1,3-dihydro-2H-benzo[d]imidazol-2-one]
- IC50: 63.2 nM

SMILES: COc1cc(-c2cc3[nH]c(=O)n([C@H]4CCCN(C5CCOCC5)C4)c3cc2C(C)C)cn2ncnc12 [Example 124, (S)-6-isopropyl-5-(8-methoxy-[1,2,4]triazolo[1,5-a]pyridin-6-yl)-1-(1-(tetrahydro-2H-pyran-4-yl)piperidin-3-yl)-1,3-dihydro-2H-benzo[d]imidazol-2-one]
- IC50: 63.8 nM

SMILES: CCC(CC)CN1CCC[C@@H](n2c(=O)[nH]c3cc(-c4cc(OC)c5ncnn5c4)c(C(F)(F)F)cc32)C1 [Example 117, (R)-1-(1-(2-ethylbutyl)piperidin-3-yl)-5-(8-methoxy-[1,2,4]triazolo[1,5-a]pyridin-6-yl)-6-(trifluoromethyl)-1,3-dihydro-2H-benzo[d]imidazol-2-one]
- IC50: 64.4 nM

SMILES: COc1cc(-c2cc3[nH]c(=O)n(C4CCN(C(=O)CN(C)C)CC4)c3cc2C)cn2ncnc12 [Example 100, 1-(1-(2-(dimethylamino)acetyl)piperidin-4-yl)-5-(8-methoxy-[1,2,4]triazolo[1,5-a]pyridin-6-yl)-6-methyl-1H-benzo[d]imidazol-2(3H)-one]
- IC50: 548 nM

SMILES: Cc1c(-c2cc3[nH]c(=O)n([C@@H]4CCCN(CC5CCOCC5)C4)c3cc2C(C)C)cn2ncnc2c1C [Example 149, (R)-5-(7,8-dimethyl-[1,2,4]triazolo[1,5-a]pyridin-6-yl)-6-isopropyl-1-(1-((tetrahydro-2H-pyran-4-yl)methyl)piperidin-3-yl)-1,3-dihydro-2H-benzo[d]imidazol-2-one]
- IC50: 3.97 nM

SMILES: COc1cc(-c2cc3[nH]c(=O)n([C@H]4CCCN(C(C)C)C4)c3cc2C(C)C)cn2ncnc12 [Example 120, (S)-6-isopropyl-1-(1-isopropylpiperidin-3-yl)-5-(8-methoxy-[1,2,4]triazolo[1,5-a]pyridin-6-yl)-1,3-dihydro-2H-benzo[d]imidazol-2-one]
- IC50: 0.64 nM

SMILES: CCN1CCC(n2c(=O)[nH]c3cc(-c4cc(OC)c5ncnn5c4)c(C)cc32)CC1 [Example 9, 1-(1-ethylpiperidin-4-yl)-5-(8-methoxy-[1,2,4]triazolo[1,5-a]pyridin-6-yl)-6-methyl-1,3-dihydro-2H-benzo[d]imidazol-2-one]
- IC50: 70.8 nM

SMILES: COc1cc(-c2cc3[nH]c(=O)n(C4CCN(CC5CCOC5)CC4)c3cc2C(C)C)cn2ncnc12 (stereo not drawn) [Example 160, 6-isopropyl-5-(8-methoxy-[1,2,4]triazolo[1,5-a]pyridin-6-yl)-1-(1-((tetrahydrofuran-3-yl)methyl)piperidin-4-yl)-1,3-dihydro-2H-benzo[d]imidazol-2-one]
- IC50: 8.66 nM

SMILES: Cc1cc2c(cc1-c1cc(C)c3ncnn3c1)[nH]c(=O)n2C1CCN(C)CC1 [Example 3, 6-methyl-5-(8-methyl-[1,2,4]triazolo[1,5-a]pyridin-6-yl)-1-(1-methylpiperidin-4-yl)-1,3-dihydro-2H-benzo[d]imidazol-2-one]
- IC50: 30.5 nM

SMILES: COc1cc(-c2cc3[nH]c(=O)n([C@@H]4CCCN(CC(C)(C)C)C4)c3cc2C(C)C)cn2ncnc12 [Example 153, (R)-6-isopropyl-5-(8-methoxy-[1,2,4]triazolo[1,5-a]pyridin-6-yl)-1-(1-neopentylpiperidin-3-yl)-1,3-dihydro-2H-benzo[d]imidazol-2-one]
- IC50: 0.58 nM

SMILES: Cc1cc2c(cc1-c1cc(C)c3ncnn3c1)[nH]c(=O)n2[C@H]1CCCN(C(=O)CN(C)C)C1 [Example 103, (S)-1-(1-(dimethylglycyl)piperidin-3-yl)-6-methyl-5-(8-methyl-[1,2,4]triazolo[1,5-a]pyridin-6-yl)-1,3-dihydro-2H-benzo[d]imidazol-2-one]
- IC50: 215 nM
